Assays:
detrusor muscle [1] = experiment: Test Example 1: relaxation of guinea pig bladder strips contracted with 50 mM KCl; type: cell-based, guinea pig (male albino Hartley); details: Cavia porcellus; contraction induced by 50 mM KCl; concentration decreasing detrusor contraction by 50%
Description: (§1) The activity of Compound (I) as a smooth muscle relaxant which is useful as a therapeutic agent for urinary incontinence can be observed, for example, using the following tests. In the following Test Examples 1 and 2, "IC50 " means the concentration of a test compound which induces the decrease in the contraction of detrusor muscle by 50%.
(§2) Male albino Hartley guinea pigs (350-550 g) were used as test animals. Each animal was exsanguinated to death under pentobarbital sodium anesthesia. The lower abdominal cavity was opened and its bladder was positioned. The connective tissue and the fat tissue around the bladder were removed, and the bladder was cleaned. After two pelvic nerves on the surface of the abdominal side of the bladder were dissected, the bladder was taken out on the entrance of ureter. The bladder was washed with a Krebs-Henseleit buffer [composition (mM): NaCl 118, KCl 4.7, MgSO4 1.2, KH2 PO4 1.2, CaCl2 2.5, NaHCO3 25, and D-glucose 11.1], and then put on a gauze patch soaked in the buffer in a Petri dish. The dome and the trigone of the bladder were dissected and discarded. The back of the bladder was cut vertically in the middle with scissors, and the bladder was put flat on the gauze patch. The dome tip and the side of the trigone of the bladder were dissected and discarded, and the mucosa of the bladder was removed. The back of the bladder was cut vertically to get 6 strips which are ca. 2.0 mm wide and ca. 10 mm long.
(§3) One end of each strip was fixed on a plastic supporter rod, and the other end was fixed on a clip connected to a suture thread. The supporter was fixed in 20 ml of an organ bath and the suture thread connected to the clip was fixed on a force-displacement transducer (NIHON KODEN TB-611T). The tissue was suspended in a Krebs-Henseleit buffer, and the bath solution was warmed to 37° C. and bubbled with a gas mixture of 5% CO2 and 95% O2. The pH of the solution was adjusted to about 7.4. The transducer was connected to a polygraph (NIHON KODEN AP-621G), and the change of tension was recorded on a recorder (YOKOGAWA type 3066). The polygraph was graduated by 0.5 g/cm.
After the tissue was incubated in the buffer for 15 minutes without preloading, tension was added thereto for about one hour. The preloading tension added was 1.5 g and it was relaxed to about 1 g. The tissue was washed at intervals of 15 minutes and the tension was adjusted to 1.5 g just before washing. The tension of the tissue was adjusted to be a steady state at 1 g. After this equilibrium time, 50 mM KCl (the whole content in the bath) was added, and the tissue was washed 10 minutes later. KCl was added to the tissue at intervals of 30 minutes, followed by washing 10 minutes later, and KCl was applied repeatedly until the developed tension induced by KCl becomes constant. When the tissue was confirmed to contract constantly by the application of KCl and relax to the steady state after washing, 50 mM KCl was applied again. After the tissue reached the steady state and the base line was obtained, a test compound was applied by the cumulative method (half-logarithmic incremence). The contact time at each concentration was 30 minutes. The activity of the compound was expressed as the maximum relaxation rate (%) of the tension induced by the agonist.

detrusor muscle [2] = experiment: Test Example 2: relaxation of guinea pig bladder strips, rhythmical contraction induced by 15 mM KCl; type: cell-based, guinea pig (male albino Hartley); details: Cavia porcellus, concentration decreasing detrusor contraction by 50%
Description: as §1, §2, §3
The effect of a smooth muscle relaxant varies with the concentration of KCl based on the difference of an action mechanism. In the following Test Example, KCl was used at a concentration different from that in Test Example 1.
A sample of the excised bladder was prepared in the same manner as in Test Example 1, and the tension of the preparation was measured. After the tension of the tissue was adjusted to be a steady state at 1 g, 15 mM KCl was applied. After the rhythmical contraction was confirmed to appear by KCl, the tissue was washed. Then, 15 mM KCl was applied again. After the rhythmical contraction took place constantly and the tissue reached the steady state, a test compound was applied by the cumulative method (half-logarithmic incremence). The contact time at each concentration was 30 minutes. The activity of the compound was expressed as the maximum relaxation rate (%) of the tension induced by the agonist.

Row | SMILES | IC50 (detrusor muscle [1]) [µM] | IC50 (detrusor muscle [2]) [µM]
1 | CC(O)(C(=O)Nc1ccc2c(c1)SCc1ccsc1C2=O)C(F)(F)F (stereo not drawn) [Compound 45, 7-(3,3,3-Trifluoro-2-hydroxy-2-methylpropanoylamino)-4,10-dihydrothieno[3,2-c][1]benzothiepin-10-one] | > 10 | 2.5
2 | CC(O)(C(=O)Nc1ccc2c(c1)[S+]([O-])Cc1ccccc1C2=O)C(F)(F)F (stereo not drawn) [Compound 49, 5-Oxo-3-(3,3,3-trifluoro-2-hydroxy-2-methylpropanoylamino)-6,11-dihydrodibenzo[b,e]thiepin-11-one] | 7.8 | 4.1
3 | CC(O)(C(=O)Nc1ccc2c(c1)CCc1ccccc1C2=O)C(F)(F)F (stereo not drawn) [Compound 54, 2-(3,3,3-Trifluoro-2-hydroxy-2-methylpropanoylamino)-10,11-dihydro-5H-dibenzo[a,d]cyclohepten-5-one] | 3.8 | > 10
4 | CC(O)(C(=O)Nc1ccc2c(c1)CCc1ncccc1C2=O)C(F)(F)F (stereo not drawn) [Compound 59, 8-(3,3,3-Trifluoro-2-hydroxy-2-methylpropanoylamino)-10,11-dihydro-5H-benzo[4,5]cyclohepta[1,2-b]pyridin-5-one] | > 10 | 5
5 | CC(O)(C(=O)Nc1cccc2ccc3ccccc3c(=O)c12)C(F)(F)F (stereo not drawn) [Compound 60, 4-(3,3,3-Trifluoro-2-hydroxy-2-methylpropanoylamino)-5H-dibenzo[a,d]cyclohepten-5-one] | > 10 | 4.1
6 | CC(O)(C(=O)Nc1ccc2ccc3ccccc3c(=O)c2c1)C(F)(F)F (stereo not drawn) [Compound 61, 3-(3,3,3-Trifluoro-2-hydroxy-2-methylpropanoylamino)-5H-dibenzo[a,d]cyclohepten-5-one] | 3.2 | 2.3
7 | CC(O)(C(=O)Nc1ccc2c(=O)c3ccccc3ccc2c1)C(F)(F)F (stereo not drawn) [Compound 62, 2-(3,3,3-Trifluoro-2-hydroxy-2-methylpropanoylamino)-5H-dibenzo[a,d]cyclohepten-5-one] | 9.3 | > 10
8 | CC(O)(C(=O)Nc1cccc2ccc3ccsc3c(=O)c12)C(F)(F)F (stereo not drawn) [Compound 63, 9-(3,3,3-Trifluoro-2-hydroxy-2-methylpropanoylamino)-10H-benzo[5,6]cyclohepta[1,2-b]thiophen-10-one] | 3.3 | > 10
9 | CC(O)(C(=O)Nc1ccc2c(=O)c3sccc3ccc2c1)C(F)(F)F (stereo not drawn) [Compound 65, 7-(3,3,3-Trifluoro-2-hydroxy-2-methylpropanoylamino)-10H-benzo[5,6]cyclohepta[1,2-b]thiophen-10-one] | 4.6 | 2.3
10 | CC(O)(C(=O)Nc1cccc2ccc3sccc3c(=O)c12)C(F)(F)F (stereo not drawn) [Compound 66, 5-(3,3,3-Trifluoro-2-hydroxy-2-methylpropanoylamino)-4H-benzo[4,5]cyclohepta[1,2-b]thiophen-4-one] | 1.4 | 2.1
11 | CC(O)(C(=O)Nc1cccc2ccc3ccoc3c(=O)c12)C(F)(F)F (stereo not drawn) [Compound 67, 9-(3,3,3-Trifluoro-2-hydroxy-2-methylpropanoylamino)-10H-benzo[5,6]cyclohepta[1,2-b]furan-10-one] | 6.9 | 3.8
12 | CC(O)(C(=O)Nc1ccc2c(=O)c3occc3ccc2c1)C(F)(F)F (stereo not drawn) [Compound 68, 7-(3,3,3-Trifluoro-2-hydroxy-2-methylpropanoylamino)-10H-benzo[5,6]cyclohepta[1,2-b]furan-10-one] | > 10 | 3.5

Reference: US5726325A, “Tricyclic compounds” (Kyowa Hakko Kogyo Co., Ltd., priority 1995, dated 1998)
